Data on 5 compounds can be found in patent US4365066A, “2(4-n-Hexadecyl amino or oxy phenyl) 5 ethoxy oxazoleacetic acid derivatives” (Yoshitomi Pharmaceutical Industries Ltd., priority 1979, dated 1982).

The first data set deals with Cholesterol and triglyceride in the serum. Nature of the data set: (i) Serum cholesterol and triglyceride reduction in rats fed a diet containing 1% of cholesterol. The settings on record: rats on diet containing 1% cholesterol, test compound 0.1% (W/W) in diet, oral, 5 days, control = 100%. The class given is in vivo, Male Sprague-Dowley rats. How it is done:
(§1) (i) Male Sprague-Dowley rats were used. Each group was composed of 8 animals. Rats were fed a diet containing 1% of cholesterol. The test compound was orally administered to the animal by feeding with the diet to which the compound was blended in a ratio of 0.1% (W/W) for 5 days. Cholesterol and triglyceride in the serum were determined by the standard methods using an autoanalyzer (Technicon Inc.). The levels in the control group were considered as 100% and the reduction rate in the test group was calculated.
As to `CCCCCCCCCCCCCCCCNc1ccc(-c2nc(CC(=O)[O-])c(OCC)o2)cc1.[Na+]`, the “Reduction Rate (%) Cholesterol” value was 31% and the “Reduction Rate (%) Triglyceride” value stood at 28%.
Take `CCCCCCCCCCCCCCCCOc1ccc(-c2nc(CC(=O)O)c(OCC)o2)cc1` [Compound A, 2-(4-n-Hexadecyloxyphenyl)-5-ethoxy-4-oxazoleacetic acid]: the “Reduction Rate (%) Cholesterol” value is recorded as 21% and the “Reduction Rate (%) Triglyceride” value is given as 35%.
In the case of `CCCCCCCCCCCCCCCCOc1ccc(-c2nc(CC(=O)O)c(Oc3ccc(Cl)cc3)o2)cc1` [Compound C, 2-(4-n-Hexadecyloxyphenyl)-5-(4-chlorophenoxy)-4-oxazoleacetic acid], the “Reduction Rate (%) Cholesterol” value is recorded as 31% and the “Reduction Rate (%) Triglyceride” value is 37%.
On the same counts, the results for `CCOc1oc(-c2ccc(OCc3ccc(Cl)cc3)cc2)nc1CC(=O)O` [Compound D, 2-[4-(4-Chlorobenzyloxy)phenyl]-5-ethoxy-4-oxazoleacetic acid] are 37% and 42%.
`CCOC(=O)C(C)(C)Oc1ccc(Cl)cc1` [Compound E, Clofibrate, reference compound]: the “Reduction Rate (%) Cholesterol” value is listed as 22% and the “Reduction Rate (%) Triglyceride” value is 23%.

The next data set has the same test system. Nature of the data set: (ii) Serum cholesterol and triglyceride reduction in rats fed a conventional diet. As to conditions: rats on conventional diet, test compound 0.1% (W/W) in diet, oral, 5 days, control = 100%. The class given is in vivo, Male Sprague-Dowley rats. How it is done: as §1, with “calculated. (ii) With the exception that rats were fed a conventional diet instead of the diet containing 1% cholesterol, a test was carried out in the same condition (rats used, administration method, period, concentration of test compound and cholesterol and triglyceride determination) as in the above test (i).” for “calculated.”
Take `CCCCCCCCCCCCCCCCNc1ccc(-c2nc(CC(=O)[O-])c(OCC)o2)cc1.[Na+]`: the “Reduction Rate (%) Cholesterol” value worked out at 26% and the “Reduction Rate (%) Triglyceride” value is 44%.
In the case of `CCCCCCCCCCCCCCCCOc1ccc(-c2nc(CC(=O)O)c(OCC)o2)cc1` [Compound A, 2-(4-n-Hexadecyloxyphenyl)-5-ethoxy-4-oxazoleacetic acid], the “Reduction Rate (%) Cholesterol” value came to 29% and the “Reduction Rate (%) Triglyceride” value is on record as 44%.
In the case of `CCOc1oc(-c2ccc(OCc3ccc(Cl)cc3)cc2)nc1CC(=O)O` [Compound D, 2-[4-(4-Chlorobenzyloxy)phenyl]-5-ethoxy-4-oxazoleacetic acid], the “Reduction Rate (%) Cholesterol” value is 19% and the “Reduction Rate (%) Triglyceride” value worked out at 53%.
On the same counts, the results for `CCOC(=O)C(C)(C)Oc1ccc(Cl)cc1` [Compound E, Clofibrate, reference compound] are 23% and 34%.

System in another data set: not listed separately
Nature of the data set: (iii) Acute toxicity (LD50) in mice. The settings on record: mouse, in vivo, ip, intraperitoneal, mortality within 7 days, read-out: LD50 Intraperitoneal administration. As for the experimental part:
(iii) Male dd-strain mice were used. Each group was composed of 10 animals. The test compound was administered intraperitoneally or orally to the animals. The LD50 (mg/kg) was calculated from the mortality within 7 days after administration of the test compound.
Consider `CCCCCCCCCCCCCCCCNc1ccc(-c2nc(CC(=O)[O-])c(OCC)o2)cc1.[Na+]`, for which the LD50 at 168 h was over 1000 mg/kg.
Same read-out and setting: the figure for `CCCCCCCCCCCCCCCCOc1ccc(-c2nc(CC(=O)O)c(OCC)o2)cc1` [Compound A, 2-(4-n-Hexadecyloxyphenyl)-5-ethoxy-4-oxazoleacetic acid] is over 1000 mg/kg; for `CCOC(=O)C(C)(C)Oc1ccc(Cl)cc1` [Compound E, Clofibrate, reference compound] it is over 1000 mg/kg.

Staying with this data set, now noted: mouse, in vivo, oral, mortality within 7 days, read-out: LD50 Oral administration.
With `CCCCCCCCCCCCCCCCNc1ccc(-c2nc(CC(=O)[O-])c(OCC)o2)cc1.[Na+]`, the LD50 at 168 h is over 2500 mg/kg.
In the case of `CCCCCCCCCCCCCCCCOc1ccc(-c2nc(CC(=O)O)c(OCC)o2)cc1` [Compound A, 2-(4-n-Hexadecyloxyphenyl)-5-ethoxy-4-oxazoleacetic acid], the LD50 at 168 h was over 2500 mg/kg.
Still for that read-out and setting: the figure for `CCOC(=O)C(C)(C)Oc1ccc(Cl)cc1` [Compound E, Clofibrate, reference compound] is over 1450 mg/kg.

The subject of the next data set is blood cholesterol. The experiment in a line: (iv) Blood cholesterol reduction in hyperlipemic monkeys fed a diet containing 0.25% cholesterol. As to conditions: hyperlipemic Rhesus monkeys, diet with 0.25% cholesterol; diet containing 0.7% (W/W) test compound, 15 days; vs control group. The class given is in vivo.
For `CCCCCCCCCCCCCCCCNc1ccc(-c2nc(CC(=O)[O-])c(OCC)o2)cc1.[Na+]`, the “reduction activity of blood cholesterol” value is “outstanding reduction activity”.
In the case of `CCCCCCCCCCCCCCCCOc1ccc(-c2nc(CC(=O)O)c(OCC)o2)cc1` [Compound A, 2-(4-n-Hexadecyloxyphenyl)-5-ethoxy-4-oxazoleacetic acid], the “reduction activity of blood cholesterol” value is given as “outstanding reduction activity”.
